# Measured values from the supplement of paper PMC10307832.
# Experiments:
# Test in all cases: relative viability (nuclei count vs DMSO), 5 days (fraction); higher = more cells survive
# NCI-H1563 = system: NCI-H1563
# Method in brief: (§1)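 After 5 days of treatment, lung cancer cells in 1536-well plates were fixed and stained in a single step (final 0.05% Triton X-100, 1% formaldehyde, 1 ug/ml Hoechst) and their nuclei counted on 4× images. Treatment had been applied by pin tool the day after seeding as one drug alone or as a fixed anchor-drug dose with five library-drug doses (not always all listed) in √10 steps. Relative viability is the nuclei count of treated wells divided by that of vehicle wells, and values are medians of duplicate plates.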
# NCI-H1623 = system: NCI-H1623
# Method in brief: as §1
# NCI-H2342 = system: NCI-H2342
# Method in brief: as §1
# NCI-H522 = system: NCI-H522
# Method in brief: as §1
# SW 900 = system: SW 900
# Method in brief: as §1
# A549 = system: A549
# Method in brief: as §1
# NCI-H1648 = system: NCI-H1648
# Method in brief: as §1
smiles,measurement,setting,value
O=C(O)CCCCC(CCSCc1ccccc1)SCc1ccccc1 (centres undefined) [CPI-613] + Cc1nc(Nc2ncc(C(=O)Nc3c(C)cccc3Cl)s2)cc(N2CCN(CCO)CC2)n1 [Dasatinib] (partner 0.075 µM),relative viability,NCI-H1563; first compound 5 µM,0.455
same,relative viability,NCI-H1563; first compound 15.81 µM,0.443
same,relative viability,NCI-H1563; first compound 50 µM,0.436
same,relative viability,NCI-H1563; first compound 158.11 µM,0.461
same,relative viability,NCI-H1563; first compound 500 µM,0.456
same,relative viability,NCI-H1623; first compound 5 µM,0.592
same,relative viability,NCI-H1623; first compound 15.81 µM,0.566
same,relative viability,NCI-H1623; first compound 50 µM,0.549
same,relative viability,NCI-H1623; first compound 158.11 µM,0.39
same,relative viability,NCI-H1623; first compound 500 µM,0.569
same,relative viability,NCI-H2342; first compound 5 µM,0.315
same,relative viability,NCI-H2342; first compound 15.81 µM,0.275
same,relative viability,NCI-H2342; first compound 50 µM,0.315
same,relative viability,NCI-H2342; first compound 158.11 µM,0.286
same,relative viability,NCI-H2342; first compound 500 µM,0.294
same,relative viability,NCI-H522; first compound 5 µM,0.818
same,relative viability,NCI-H522; first compound 15.81 µM,1.01
same,relative viability,NCI-H522; first compound 50 µM,0.922
same,relative viability,NCI-H522; first compound 158.11 µM,0.84
same,relative viability,NCI-H522; first compound 500 µM,0.494
same,relative viability,SW 900; first compound 5 µM,0.692
same,relative viability,SW 900; first compound 15.81 µM,0.542
same,relative viability,SW 900; first compound 50 µM,0.686
same,relative viability,SW 900; first compound 158.11 µM,0.262
same,relative viability,SW 900; first compound 500 µM,0.121
O=C(O)CCCCC(CCSCc1ccccc1)SCc1ccccc1 (centres undefined) [CPI-613] + N=C(N)NC(=N)NCCc1ccccc1 [Phenformin] (partner 250 µM),relative viability,A549; first compound 5 µM,0.162
same,relative viability,A549; first compound 15.81 µM,0.172
same,relative viability,A549; first compound 50 µM,0.178
same,relative viability,A549; first compound 158.11 µM,0.131
same,relative viability,A549; first compound 500 µM,0.107
same,relative viability,NCI-H1563; first compound 5 µM,0.638
same,relative viability,NCI-H1563; first compound 15.81 µM,0.588
same,relative viability,NCI-H1563; first compound 50 µM,0.637
same,relative viability,NCI-H1563; first compound 158.11 µM,0.503
same,relative viability,NCI-H1563; first compound 500 µM,0.27
same,relative viability,NCI-H1623; first compound 5 µM,0.63
same,relative viability,NCI-H1623; first compound 15.81 µM,0.565
same,relative viability,NCI-H1623; first compound 50 µM,0.573
same,relative viability,NCI-H1623; first compound 158.11 µM,0.488
same,relative viability,NCI-H1623; first compound 500 µM,0.551
same,relative viability,NCI-H2342; first compound 5 µM,0.636
same,relative viability,NCI-H2342; first compound 15.81 µM,0.589
same,relative viability,NCI-H2342; first compound 50 µM,0.586
same,relative viability,NCI-H2342; first compound 158.11 µM,0.487
same,relative viability,NCI-H2342; first compound 500 µM,0.638
same,relative viability,NCI-H522; first compound 5 µM,0.681
same,relative viability,NCI-H522; first compound 15.81 µM,0.672
same,relative viability,NCI-H522; first compound 50 µM,0.625
same,relative viability,NCI-H522; first compound 158.11 µM,0.588
same,relative viability,NCI-H522; first compound 500 µM,0.399
same,relative viability,SW 900; first compound 5 µM,0.579
same,relative viability,SW 900; first compound 15.81 µM,0.542
same,relative viability,SW 900; first compound 50 µM,0.4
same,relative viability,SW 900; first compound 158.11 µM,0.305
same,relative viability,SW 900; first compound 500 µM,0.03
Cc1cnc(-c2cnc(NCCNc3ccc(C#N)cn3)nc2-c2ccc(Cl)cc2Cl)[nH]1 + COc1cccc2cc(-c3nc([C@H]4CC[C@H](C(=O)O)CC4)n4ncnc(N)c34)[nH]c12 [OSI-027] (partner 0.5 µM),relative viability,NCI-H1563; first compound 0.08 µM,0.798
same,relative viability,NCI-H1563; first compound 0.253 µM,0.733
same,relative viability,NCI-H1563; first compound 0.8 µM,0.758
same,relative viability,NCI-H1563; first compound 2.53 µM,0.78
same,relative viability,NCI-H1623; first compound 0.08 µM,0.478
same,relative viability,NCI-H1623; first compound 0.253 µM,0.417
same,relative viability,NCI-H1623; first compound 0.8 µM,0.413
same,relative viability,NCI-H1623; first compound 2.53 µM,0.48
same,relative viability,NCI-H1648; first compound 0.08 µM,0.24
same,relative viability,NCI-H1648; first compound 0.253 µM,0.259
same,relative viability,NCI-H1648; first compound 0.8 µM,0.242
same,relative viability,NCI-H1648; first compound 2.53 µM,0.289
same,relative viability,NCI-H2342; first compound 0.08 µM,0.653
same,relative viability,NCI-H2342; first compound 0.253 µM,0.546
same,relative viability,NCI-H2342; first compound 0.8 µM,0.556
same,relative viability,NCI-H2342; first compound 2.53 µM,0.53
same,relative viability,NCI-H522; first compound 0.08 µM,0.653
same,relative viability,NCI-H522; first compound 0.253 µM,0.705
same,relative viability,NCI-H522; first compound 0.8 µM,0.647
same,relative viability,NCI-H522; first compound 2.53 µM,0.885
same,relative viability,SW 900; first compound 0.08 µM,0.695
same,relative viability,SW 900; first compound 0.253 µM,0.56
same,relative viability,SW 900; first compound 0.8 µM,0.502
same,relative viability,SW 900; first compound 2.53 µM,0.546
O=C(O)CCCCC(CCSCc1ccccc1)SCc1ccccc1 (centres undefined) [CPI-613] + CCNC(=O)c1noc(-c2cc(C(C)C)c(O)cc2O)c1-c1ccc(CN2CCOCC2)cc1 [Luminespib] (partner 0.01 µM),relative viability,NCI-H1563; first compound 5 µM,0.491
same,relative viability,NCI-H1563; first compound 15.81 µM,0.501
same,relative viability,NCI-H1563; first compound 50 µM,0.552
same,relative viability,NCI-H1563; first compound 158.11 µM,0.357
same,relative viability,NCI-H1563; first compound 500 µM,0.316
same,relative viability,NCI-H1623; first compound 5 µM,0.405
same,relative viability,NCI-H1623; first compound 15.81 µM,0.436
same,relative viability,NCI-H1623; first compound 50 µM,0.54
same,relative viability,NCI-H1623; first compound 158.11 µM,0.389
same,relative viability,NCI-H1623; first compound 500 µM,0.447
same,relative viability,NCI-H2342; first compound 5 µM,0.798
same,relative viability,NCI-H2342; first compound 15.81 µM,0.738
same,relative viability,NCI-H2342; first compound 50 µM,0.543
same,relative viability,NCI-H2342; first compound 158.11 µM,0.668
same,relative viability,NCI-H2342; first compound 500 µM,0.756
same,relative viability,NCI-H522; first compound 5 µM,1.15
same,relative viability,NCI-H522; first compound 15.81 µM,1.01
same,relative viability,NCI-H522; first compound 50 µM,1.19
same,relative viability,NCI-H522; first compound 158.11 µM,0.974
same,relative viability,NCI-H522; first compound 500 µM,1.16
same,relative viability,SW 900; first compound 5 µM,0.162
same,relative viability,SW 900; first compound 15.81 µM,0.166
same,relative viability,SW 900; first compound 50 µM,0.209
same,relative viability,SW 900; first compound 158.11 µM,0.17
same,relative viability,SW 900; first compound 500 µM,0.0842
